Data reported in patent US20070219162A1, “Partially-fluorinated ethers, compositions and uses thereof, for long-term tamponade in the eye” (THE TRUSTEES OF COLUMBIA UNIVERSITY IN THE CITY OF NEW YORK, priority 2004, published 2007).

Legend:
[1] = Water insolubility (single drop in one liter of water); assay type: physicochemical; conditions: single drop (about 50 ppm) added to one liter of water
Protocol: (§1) DFPE liquid is stable. […] Further, a mixture of DFPE in silicone (20% DFPE (w/w) and 80% silicone (w/w)) is stable through daily temperature cycling (20-40° C.) through at least 18 months. Further with respect to water insolubility, a single drop of DFPE (about 50 ppm) added to one liter of water remains visible, unchanged and undissolved for long periods of time (at least greater than 8 months).

[2] = Tamponade force calculated from specific gravity difference to fluid vitreous; assay type: physicochemical; parameters: unit not given beside the values; conditions: difference in specific gravity to fluid vitreous (1.03) multiplied by volume of tamponade agent (5 mL)
[3] = assay type: physicochemical
Description: Soluble Mixtures of Partially Fluorinated Ethers. The presence of the hydrocarbon chain in the structure of formula (I) has a large effect on the solubility properties of the molecule. The partially fluorinated ethers of formula (I) are completely miscible with certain perfluorocarbons, such as perfluoro-n-octane (“PFnO”) (C8F18), perfluoroethylcyclohexane (C8F16), perfluorodecalin (C10F18), and perfluorophenanthrene (C14F24). The solubility of formula (I) liquids with perfluorocarbons enables the design of soluble mixtures that can be used as long-term postoperative tamponade agents that have a specific gravity less than 1.6 or 1.5 such that the probability of retinal damage due to weight is reduced. For example, the commonly used intraoperative perfluorocarbon, PFnO, has a specific gravity of about 1.7. Thus, in order to make a soluble mixture of PFnO and DFPE (which has a specific gravity of about 1.3) that has a specific gravity less than 1.6 or 1.5, then one can use a greater amount of DFPE to reduce the specific gravity of the soluble mixture. For example, a mixture comprising about 25% PFnO and about 75% DFPE has a specific gravity of 1.39 at body temperature (see Table 1). […]

[4] = test system: eye; conditions: in vivo
Description: FIG. 4 and FIG. 5 show results indicating the long term biocompatibility of the eye to decafluoro-di-n-pentyl ether. […] Thus, the above characteristics, combined with the specific-gravity characteristics of the partially fluorinated ethers of formula (I), allow for their long-term use in the eye without damage, and with improved efficacy, convenience and biocompatibility. […] The invention contemplates the use of liquid tamponade agents comprising partially fluorinated ethers according to formula (I) for postoperative periods such as: hours, days, weeks, 1 month, 2 months, 3 months, greater than 3 months, greater than 6 months, up to 1 year, up to 2 years or more. Period greater than 1 year are not generally required for tamponade.

[5] = assay type: physicochemical; remark: listed apart in the source
Protocol: as §1

[6] = test system: eye; experiment: Gas chromatography of DFPE recovered from the eye; assay type: in vivo; conditions: after one month of residence time in the eye
[7] = Specific gravity of tamponading agents; assay type: physicochemical
Description: Soluble Mixtures of Partially Fluorinated Ethers. The presence of the hydrocarbon chain in the structure of formula (I) has a large effect on the solubility properties of the molecule. The partially fluorinated ethers of formula (I) are completely miscible with certain perfluorocarbons, such as perfluoro-n-octane (“PFnO”) (C8F18), perfluoroethylcyclohexane (C8F16), perfluorodecalin (C10F18), and perfluorophenanthrene (C14F24). The solubility of formula (I) liquids with perfluorocarbons enables the design of soluble mixtures that can be used as long-term postoperative tamponade agents that have a specific gravity less than 1.6 or 1.5 such that the probability of retinal damage due to weight is reduced. For example, the commonly used intraoperative perfluorocarbon, PFnO, has a specific gravity of about 1.7. Thus, in order to make a soluble mixture of PFnO and DFPE (which has a specific gravity of about 1.3) that has a specific gravity less than 1.6 or 1.5, then one can use a greater amount of DFPE to reduce the specific gravity of the soluble mixture. For example, a mixture comprising about 25% PFnO and about 75% DFPE has a specific gravity of 1.39 at body temperature (see Table 1). This general strategy of mixing lighter partially fluorinated ether liquids with perfluorocarbon liquids can be conducted with any of the formula (I) liquids and a perfluorocarbon liquid, as long as they are miscible. Further, one can also make soluble mixtures between different partially fluorinated ethers in order to obtain a liquid tamponade agent that has a preferred specific gravity.
Further, one can use the strategy of mixing partially fluorinated ether liquids of formula (I) with lighter tamponade liquids, such as silicone, in order to resolve buoyancy problems and to increase tamponade force. As described previously, because silicone liquids are lighter than water and are immiscible in water, silicone liquids form a globule that rises above aqueous solutions. To rectify this problem, partially fluorinated ether liquids can be mixed with silicone liquids and oils such that soluble mixture has a specific gravity greater than 1.0. In one embodiment, partially fluorinated ether and silicone solutions have a specific gravity between about 1.00 and about 1.06. For example, DFPE can be mixed with silicone oil (such as dimethyl siloxane) and be soluble in silicone oil up to about 20% DFPE (weight to weight (w/w)). Thus, the invention contemplates DFPE and silicone mixtures where DFPE comprises between about 10% and about 20% of the solution and where silicone comprises between about 90% and about 80% of the solution. In one embodiment, a soluble mixture comprises between about 15% and about 18% (w/w) DFPE and between about 85% and about 82% (w/w) silicone oil. In another embodiment, a soluble mixture of about 18% (w/w) DFPE and about 82% (w/w) silicone oil has a specific gravity of about 1.02 at 37° C. In another embodiment, a soluble mixture of about 20% (w/w) DFPE and about 80% (w/w) silicone oil has a specific gravity of about 1.02-1.03. Perfluorocarbon liquids cannot be easily mixed with silicone liquids because perfluorocarbon liquids, not having any hydrocarbons, are only soluble up to less than about 1000 ppm with silicone.

[8] = Refractive index of tamponading agents; assay type: physicochemical; conditions: Table 1
[9] = Viscosity of tamponading agents; assay type: physicochemical
[10] = Boiling point of tamponading agents; conditions: Table 1
[11] = approximate, no temperature stated

time a single drop remains visible, unchanged and undissolved in water [1] | solubility in silicone oil [3] | amplitudes of electroretinographic responses [4] | implicit times of electroretinographic responses [4] | stability to sunlight exposure [5] | stable over time ([5]; ambient temperature) | stable when exposed to heat ([5]; heat exposure) | changes in composition of DFPE recovered from the eye [6] | Specific Gravity ([7]; at body temperature) | Compound | Tamponade Force [2] | Specific Gravity ([7]; Table 1) | Specific Gravity [7, 11] | Refractive Index [8] | Viscosity (centistrokes at 25° C.) [9] | Boiling Point [10]
greater than 8 months | up to 20 % (w/w) | does not exhibit any negative effects | does not exhibit any negative effects | stable to sunlight exposure | at least 2 years | up to 95 °C | less than 0.05% | 1.31 | FC(F)(F)C(F)(F)CCCOCCCC(F)(F)C(F)(F)F [DFPE, decafluoro-di-n-pentyl ether] | 1.4 | 1.31 | about 1.3 | – | – | –
– | – | – | – | – | – | – | – | – | FC(F)(F)C(F)(F)C(F)(F)C(F)(F)C(F)(F)C(F)(F)C(F)(F)C(F)(F)F [PFnO, perfluoro-n-octane] | 3.65 | 1.76 | about 1.7 | 1.27 | 0.8 centistrokes | 105 °C
– | – | – | – | – | – | – | – | – | FC1(F)C(F)(F)C(F)(F)C2(F)C(F)(F)C(F)(F)C(F)(F)C(F)(F)C2(F)C1(F)F (stereo not shown) [Perfluorodecalin, perfluorodecalin] | 4.55 | 1.94 | – | 1.31 | 2.7 centistrokes | 177 °C
– | – | – | – | – | – | – | – | – | Fc1c(F)c(F)c2c(c1F)c(F)c(F)c1c(F)c(F)c(F)c(F)c12 [Perfluorophenanthrene, perfluorophenanthrene] | 5.0 | 2.03 | – | 1.28 | 8.03 centistrokes | 215 °C
